The nature of data set [1]: Kinetic solubility assay (CLND), pH 6.8. Format: physicochemical. Particulars: potassium phosphate buffer pH 6.8, 2% DMSO, 24 hours at ambient temperature; for solubility kinetic at 24 h: aqueous buffer, kinetic from dmso stock.
Another data set deals with MDR1 (Homo sapiens (Human), UniProt P08183). Briefly: in vitro. The note with it: MDCK-MDR1.

The values that follow come from patent US20240116922A1, “IMIDAZO[1,2-A]PYRIDINE DERIVATIVES AS IRAK4 INHIBITORS AND THEIR USE IN THE TREATMENT OF DISEASE” (BIOGEN MA INC., priority 2020, published 2024).

≈ marks a conversion by molar mass, not a printed value.

MDR1, sequence (P08183 whole entry): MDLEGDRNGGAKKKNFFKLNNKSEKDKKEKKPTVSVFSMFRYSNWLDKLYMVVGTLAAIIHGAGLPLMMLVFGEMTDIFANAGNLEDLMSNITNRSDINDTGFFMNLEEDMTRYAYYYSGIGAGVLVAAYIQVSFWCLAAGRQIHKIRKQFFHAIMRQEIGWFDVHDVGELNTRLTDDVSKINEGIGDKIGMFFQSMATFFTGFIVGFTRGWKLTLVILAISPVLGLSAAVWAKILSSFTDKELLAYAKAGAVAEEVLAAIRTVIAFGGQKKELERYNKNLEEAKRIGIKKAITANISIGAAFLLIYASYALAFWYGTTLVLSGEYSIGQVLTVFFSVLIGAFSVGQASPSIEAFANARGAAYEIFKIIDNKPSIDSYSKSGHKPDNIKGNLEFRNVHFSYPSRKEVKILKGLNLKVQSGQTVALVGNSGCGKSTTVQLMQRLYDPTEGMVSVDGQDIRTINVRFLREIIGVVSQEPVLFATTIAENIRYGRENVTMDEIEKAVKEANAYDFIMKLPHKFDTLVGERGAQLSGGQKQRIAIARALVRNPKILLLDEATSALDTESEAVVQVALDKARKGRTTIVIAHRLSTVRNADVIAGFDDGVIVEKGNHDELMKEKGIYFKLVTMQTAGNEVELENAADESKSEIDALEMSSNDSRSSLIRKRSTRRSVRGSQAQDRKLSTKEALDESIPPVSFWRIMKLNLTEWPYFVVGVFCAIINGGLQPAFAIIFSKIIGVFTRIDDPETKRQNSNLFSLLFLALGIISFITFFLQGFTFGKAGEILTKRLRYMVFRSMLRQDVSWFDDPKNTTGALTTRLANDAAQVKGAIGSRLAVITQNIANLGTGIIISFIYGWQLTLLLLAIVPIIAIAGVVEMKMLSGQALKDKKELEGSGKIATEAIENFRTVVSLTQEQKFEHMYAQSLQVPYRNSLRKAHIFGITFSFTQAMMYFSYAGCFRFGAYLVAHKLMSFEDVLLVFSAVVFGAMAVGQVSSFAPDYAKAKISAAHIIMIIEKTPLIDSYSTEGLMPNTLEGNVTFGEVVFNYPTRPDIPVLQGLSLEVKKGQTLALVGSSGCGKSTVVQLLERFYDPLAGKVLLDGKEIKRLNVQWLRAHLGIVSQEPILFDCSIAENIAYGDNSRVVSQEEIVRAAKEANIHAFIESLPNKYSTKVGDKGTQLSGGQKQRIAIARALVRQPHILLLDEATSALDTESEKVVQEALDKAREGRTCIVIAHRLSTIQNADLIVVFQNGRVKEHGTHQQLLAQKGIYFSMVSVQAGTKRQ

In data set [1], `COCC12CC(c3cn4cc(C(=O)Nc5cccn([C@H]6C[C@H]6F)c5=O)c(OC(C)C)nc4n3)(CO1)C2` [Example 163, N-(1-((1S,2R)-2-fluorocyclopropyl)-2-oxo-1,2-dihydropyridin-3-yl)-7-isopropoxy-2-(1-(methoxymethyl)-2-oxabicyclo[2.1.1]hexan-4-yl)imidazo[1,2-a]pyrimidine-6-carboxamide] had a solubility (kinetic) at 24 h of 66 µg/mL (≈ 133 µM).
On the same count and under the same terms, with `CC(C)Oc1nc2nc(C34COC(C3)C4)cn2cc1C(=O)Nc1cccn([C@H]2C[C@H]2F)c1=O` (single isomer, unassigned) [Example 89] the figure was 23.9 µg/mL (≈ 52.7 µM).
In the case of `CC[C@H](C)Oc1cc2nc(C34COC(C)(C3)C4)cn2cc1C(=O)Nc1cccn(C2CC2F)c1=O` (mixture of isomers) [Example 96, 7-((S)-sec-butoxy)-N-(1-cis-(2-fluorocyclopropyl)-2-oxo-1,2-dihydropyridin-3-yl)-2-(1-methyl-2-oxabicyclo[2.1.1]hexan-4-yl)imidazo[1,2-a]pyridine-6-carboxamide], the kinetic solubility at 24 h in data set [1] came to 75.7 µg/mL. In addition, the efflux ratio at 120 min, 1 μM on MDR1 came to 10.4.
As for `COCC12CC(c3cn4cc(C(=O)Nc5cccn([C@@H]6C[C@@H]6F)c5=O)c(OC(C)C)nc4n3)(CO1)C2` [Example 162, N-(1-((1R,2S)-2-fluorocyclopropyl)-2-oxo-1,2-dihydropyridin-3-yl)-7-isopropoxy-2-(1-(methoxymethyl)-2-oxabicyclo[2.1.1]hexan-4-yl)imidazo[1,2-a]pyrimidine-6-carboxamide], the efflux ratio at 120 min, 1 μM on MDR1 was 38.2.
In data set [1], `CC(C)Oc1cc2nc(C34COC(C)(C3)C4)cn2cc1C(=O)Nc1cccn([C@@H]2C[C@@H]2F)c1=O` (racemic) [Example 97, (rac)-Cis-N-(1-(2-fluorocyclopropyl)-2-oxo-1,2-dihydropyridin-3-yl)-7-isopropoxy-2-(1-methyl-2-oxabicyclo[2.1.1]hexan-4-yl)imidazo[1,2-a]pyridine-6-carboxamide] gave a kinetic solubility at 24 h of 59.5 µg/mL (≈ 128 µM).
On to `CC(C)Oc1cc2nc(C34COC(C)(C3)C4)cn2cc1C(=O)Nc1ccnn(C2CC2)c1=O` [Example 76], for which the solubility (kinetic) at 24 h in data set [1] was found to be 50.9 µg/mL (≈ 113 µM). Moreover, the efflux ratio at 120 min, 1 μM at MDR1 turned out to be 3.6.
In data set [1], `CCC12CC(c3cn4cc(C(=O)Nc5cccn(C6CC6)c5=O)c(OC(C)C)nc4n3)(CO1)C2` [Example 31] had a solubility (kinetic) at 24 h of 24.2 µg/mL (≈ 52.2 µM).
`CC(C)Oc1nc2nc(C34COC(C)(C3)C4)cn2cc1C(=O)Nc1cccn([C@@H]2C[C@H]2C)c1=O` (single isomer, unassigned) [Example 156] had a kinetic solubility at 24 h in data set [1] of 62.8 µg/mL (≈ 135 µM). This solubility kinetic at 24 h is about 2.6-fold higher than that of the molecule before.
On to `CC(C)Oc1nc2nc([C@]34CC[C@](C)(C3)OC4)cn2cc1C(=O)Nc1cccn(C2CC2)c1=O` (single isomer, unassigned) [Example 13], for which the kinetic solubility at 24 h in data set [1] was 20.3 µg/mL (≈ 43.8 µM). Against the preceding molecule, the solubility kinetic at 24 h is about […]-fold lower.
Still for that read-out and setting: the result for `CC(C)Oc1nc2nc(C34COC(C3)C4)cn2cc1C(=O)Nc1cccn([C@@H]2C[C@@H]2F)c1=O` (racemic) [Example 87, (rac)-Cis-2-(2-oxabicyclo[2.1.1]hexan-4-yl)-N-(1-(2-fluorocyclopropyl)-2-oxo-1,2-dihydropyridin-3-yl)-7-isopropoxyimidazo[1,2-a]pyrimidine-6-carboxamide] reads 48.4 µg/mL (≈ 107 µM).
The same measure, in the same setting: with `CC(C)Oc1nc2nc(C34COC(C)(C3)C4)cn2cc1C(=O)Nc1cccn([C@@H]2C[C@H]2C)c1=O` (racemic) [Example 95, (rac)-trans-7-isopropoxy-2-(1-methyl-2-oxabicyclo[2.1.1]hexan-4-yl)-N-(1-(2-methylcyclopropyl)-2-oxo-1,2-dihydropyridin-3-yl)imidazo[1,2-a]pyrimidine-6-carboxamide] the figure was 35.3 µg/mL (≈ 76.2 µM).
Turning to `Cc1cnc2c(NC(=O)c3cn4cc(C56CCC(C)(CC5)OC6)nc4cc3OC(C)C)cnn2c1` [Comparator 5B, 7-isopropoxy-2-(1-methyl-2-oxabicyclo[2.2.2]octan-4-yl)-N-(6-methylpyrazolo[1,5-a]pyrimidin-3-yl)imidazo[1,2-a]pyridine-6-carboxamide, reference compound], the solubility (kinetic) at 24 h in data set [1] worked out at 5.2 µg/mL (≈ 11 µM). Besides, the efflux ratio at 120 min, 1 μM on MDR1 came out at 1.4.
`CC(C)Oc1nc2nc(C34CCC(CF)(C3)OC4)cn2cc1C(=O)Nc1cccn(C2CC2)c1=O` (centres unmarked) [Example 45, N-(1-cyclopropyl-2-oxo-1,2-dihydropyridin-3-yl)-2-(1-(fluoromethyl)-2-oxabicyclo[2.2.1]heptan-4-yl)-7-isopropoxyimidazo[1,2-a]pyrimidine-6-carboxamide]: the kinetic solubility at 24 h in data set [1] was determined as 6.8 µg/mL (≈ 14.1 µM).
The same measure, in the same setting: with `CC(C)Oc1nc2nc(C34COC(C3)C4)cn2cc1C(=O)Nc1cccn([C@@H]2C[C@@H]2F)c1=O` (single isomer, unassigned) [Example 88] the figure was 20.7 µg/mL (≈ 45.6 µM).
Still for that read-out and setting: the result for `CC(C)Oc1nc2nc(C34COC(C)(C3)C4)cn2cc1C(=O)Nc1cccn(C2C[C@]2(C)C(F)F)c1=O` (stereo partly drawn) [Example 144, N-(1-((1S,2S)-2-(difluoromethyl)-2-methylcyclopropyl)-2-oxo-1,2-dihydropyridin-3-yl)-7-isopropoxy-2-(1-methyl-2-oxabicyclo[2.1.1]hexan-4-yl)imidazo[1,2-a]pyrimidine-6-carboxamide] reads 34.4 µg/mL (≈ 67 µM).
Still for that read-out and setting: with `CC(C)Oc1nc2nc([C@@]34CC[C@@](C)(C3)OC4)cn2cc1C(=O)Nc1cccn([C@@H]2C[C@H]2F)c1=O` (single isomer, unassigned) [Example 122] the figure was 48.8 µg/mL (≈ 101 µM).
For the molecule `COC[C@]12C[C@](c3cn4cc(C(=O)Nc5cccn(C6CC6F)c5=O)c(OC(C)C)nc4n3)(CO1)C2` (mixture of isomers) [Example 90, (rac)-Cis-N-(1-(2-fluorocyclopropyl)-2-oxo-1,2-dihydropyridin-3-yl)-7-isopropoxy-2-(1-(methoxymethyl)-2-oxabicyclo[2.1.1]hexan-4-yl)imidazo[1,2-a]pyrimidine-6-carboxamide], the “pH 6.8 Solubility (ug/mL)” value in data set [1] is reported as 74.8 ug/mL.
Consider `CC(C)Oc1nc2nc(C34COC(C)(C3)C4)cn2cc1C(=O)Nc1ccnn(C2CC2)c1=O` [Example 71, N-(2-cyclopropyl-3-oxo-2,3-dihydropyridazin-4-yl)-7-isopropoxy-2-(1-methyl-2-oxabicyclo[2.1.1]hexan-4-yl)imidazo[1,2-a]pyrimidine-6-carboxamide], for which the solubility (kinetic) at 24 h in data set [1] was found to be 8.9 µg/mL (≈ 19.8 µM).
Same read-out and setting: with `CC(C)Oc1nc2nc([C@]34CC[C@](C)(C3)OC4)cn2cc1C(=O)Nc1cccn([C@H]2C[C@@H]2F)c1=O` (single isomer, unassigned) [Example 121] the figure was 33.9 µg/mL (≈ 70.4 µM); with `CC(C)Oc1nc2nc([C@]34CC[C@](C)(C3)OC4)cn2cc1C(=O)Nc1cccn([C@@H]2C[C@H]2F)c1=O` (single isomer, unassigned) [Example 120], 76.7 µg/mL (≈ 159 µM); with `CC(C)Oc1nc2nc([C@]34CC[C@](CF)(C3)OC4)cn2cc1C(=O)Nc1cccn(C2CC2)c1=O` (single isomer, unassigned) [Example 47], 9 µg/mL (≈ 18.7 µM).
Still for that read-out and setting: the result for `CC(C)Oc1nc2nc([C@@]34CC[C@@](C)(C3)OC4)cn2cc1C(=O)Nc1cccn([C@H]2C[C@@H]2F)c1=O` (single isomer, unassigned) [Example 123] reads 73 µg/mL (≈ 152 µM).
The same measure, in the same setting: with `CC(C)Oc1cc2nc(C34COC(C)(C3)C4)cn2cc1C(=O)Nc1cccn([C@@H]2C[C@H]2F)c1=O` (single isomer, unassigned) [Example 154] the figure was 37.2 µg/mL (≈ 79.7 µM).

The term solubility (kinetic) denotes the concentration staying in solution when a stock, usually in DMSO, is diluted into the medium. By efflux ratio is commonly meant the permeability from basolateral to apical divided by that in the opposite direction, in the common usage.
